Experiments:
[1] = test system: Spodoptera littoralis; assay: Antifeedant activity against Spodoptera littoralis larvae fed on compound-treated disk at 100 ppm after 18 hr by two-choice assay; assay type: functional
[2] = test system: Spodoptera littoralis; assay: Antifeedant activity against Spodoptera littoralis larvae fed on compound-treated disk after 18 hr by two-choice assay; assay type: functional

| SMILES | AFI [1] [%] | AFC50 [2] [ppm] |
| --- | --- | --- |
| CC(=O)O[C@@H]1O[C@H](c2ccoc2)C[C@]12[C@H](C)[C@@H](OC(C)=O)C(=O)[C@H]1[C@@H]2CCC[C@@]12CO[C@H](C)O2 | -5.4 | >1000 |
| CC(=O)O[C@@H]1O[C@H](c2ccoc2)C[C@]12[C@H](C)[C@@H](OC(C)=O)C(=O)[C@H]1[C@@H]2CCC[C@@]12CO[C@@H](C)O2 | 34.1 | >390 |
| CC(=O)OC[C@]12[C@H](CCC[C@]13CO3)[C@@]1(C[C@@H](c3ccoc3)O[C@H]1OC(C)=O)[C@H](C)[C@@H](OC(C)=O)[C@@H]2O | -21.1 | >1000 |
| CC(=O)OC[C@]12[C@H](CCC[C@]13CO3)[C@@]1(C[C@@H](c3ccoc3)O[C@@H]1OC(C)=O)[C@H](C)[C@@H](OC(C)=O)[C@@H]2OC(C)=O | 26.7 | >1000 |
| CC(=O)OC[C@]12[C@H](CCC[C@]13CO3)[C@@]1(C[C@@H](c3ccoc3)O[C@@H]1O)[C@H](C)[C@@H](OC(C)=O)[C@@H]2OC(C)=O | -14.3 | >1000 |
| CC(=O)OC[C@]12[C@H](CCC[C@]13CO3)[C@@]1(C[C@@H](c3ccoc3)O[C@@H]1O)[C@H](C)[C@@H](OC(C)=O)[C@@H]2O | 5.4 | >1000 |
| CC(=O)OC[C@]12[C@H](CCC[C@]13CO3)[C@@]1(C[C@@H](c3ccoc3)O[C@@H]1O)[C@H](C)[C@@H](O)[C@@H]2OC(C)=O | 54 | 39 |
| CC(=O)OC[C@]12[C@H](CCC[C@]13CO3)[C@@]1(C[C@@H](c3ccoc3)O[C@@H]1O)[C@H](C)[C@@H](O)[C@@H]2O | 30.4 | 300 |
| CC(=O)OC[C@]12C(=O)[C@H](O)[C@@H](C)[C@]3(C[C@@H](c4ccoc4)O[C@H]3OC(C)=O)[C@H]1CCC[C@]21CO1 [ERIOCEPHALIN] | 5.5 | >1000 |
